# Measurements published in the supplement of paper PMC10331698.
# ± gives the standard deviation of the averaged measurements.
# Assays:
# Test in all cases: level (log10 ratio to DMSO vehicle control); higher = higher biomarker level / cell amount than vehicle control
# Details in all cases: in DMSO
# [1] = compound: C=CC(=O)OCCC(F)(F)C(F)(F)C(F)(F)C(F)(F)F [2-(Perfluorobutyl)ethyl acrylate]
# Experimental: (§1)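 BioMAP Diversity Plus panel of 12 human primary cell co-culture systems (3C, 4H, LPS, SAg, BT, BF4T, BE3C, CASM3C, HDF3CGF, KF3CT, MyoF, Mphg). Compounds were added 1 h before stimulation and left for 24 h (MyoF 48 h; BT 72 h for soluble read-outs or 6 d for IgG). Biomarkers were read by ELISA, cytotoxicity by SRB, PBMC viability and proliferation by Alamar Blue. Each well value was divided by the mean of 8 DMSO control wells on the same plate and log10 transformed; duplicate blinded samples were tested at 4 concentrations.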
# [2] = compound: O=C(O)CCC(F)(F)C(F)(F)C(F)(F)F [3:3 Fluorotelomer carboxylic acid]
# Experimental: as §1
# [3] = compound: O=C(O)C(F)(F)C(F)(F)C(F)(F)C(F)(F)C(F)(F)C(F)(F)C(F)(F)C(F)(F)Cl [9-Chloro-perfluorononanoic acid]
# Experimental: as §1
# [4] = compound: O=S(=O)(O)C(F)(F)C(F)(F)C(F)(F)C(F)(F)C(F)(F)C(F)(F)C(F)(F)C(F)(F)F [Perfluorooctanesulfonic acid]
# Experimental: as §1
# [5] = compound: O=C(O)CCC(F)(F)C(F)(F)C(F)(F)C(F)(F)C(F)(F)F [2H,2H,3H,3H-Perfluorooctanoic acid]
# Experimental: as §1
# [6] = compound: FC(F)(F)C(F)(F)C(F)(F)C(F)(F)C(F)(F)C(F)(F)C(F)(F)CCI [1-Iodo-1H,1H,2H,2H-perfluorononane]
# Experimental: as §1
# [7] = compound: O=S(=O)(O)C(F)(F)C(F)(F)C(F)(F)C(F)(F)F [Perfluorobutanesulfonic acid]
# Experimental: as §1
Test System,level (log10) ([1]; 6700 nM),level (log10) ([1]; 20000 nM),level (log10) ([1]; 60000 nM),level (log10) ([2]; 6700 nM),level (log10) ([2]; 20000 nM),level (log10) ([2]; 60000 nM),level (log10) ([3]; 6700 nM),level (log10) ([3]; 20000 nM),level (log10) ([4]; 6700 nM),level (log10) ([4]; 20000 nM),level (log10) ([4]; 60000 nM),level (log10) ([5]; 6700 nM),level (log10) ([5]; 20000 nM),level (log10) ([5]; 60000 nM),level (log10) ([6]; 6700 nM),level (log10) ([6]; 20000 nM),level (log10) ([7]; 6700 nM),level (log10) ([7]; 20000 nM),level (log10) ([7]; 60000 nM)
LPS:M-CSF,-0.0115 ± 0.0021,-0.0085 ± 0.011,-0.052 ± 0.085,-0.0335 ± 0.052,-0.0095 ± 0.016,0.0215 ± 0.033,-0.0125 ± 0.0078,0.0485 ± 0.047,-0.022 ± 0.011,0 ± 0.031,0.008 ± 0.017,-0.0035 ± 0.0035,0.008 ± 0.014,0.0035 ± 0.03,-0.003 ± 0.028,-0.0015 ± 0.093,0.021 ± 0.016,-0.0035 ± 0.00071,0.01 ± 0.014
LPS:SRB,0.0015 ± 0.012,-0.0015 ± 0.0035,-0.013 ± 0.013,-0.008 ± 0.0014,-0.0025 ± 0.0064,0.0065 ± 0.0064,0.0015 ± 0.012,-0.0035 ± 0.013,-0.003 ± 0.0085,-0.003 ± 0.0028,0,-0.01 ± 0.0014,-0.0115 ± 0.0035,-0.0035 ± 0.0064,0.0125 ± 0.0064,0.019 ± 0.017,0.0065 ± 0.011,0.004 ± 0.0057,0.002 ± 0.0057
LPS:sPGE2,-0.0675 ± 0.022,-0.099 ± 0.0085,-0.101 ± 0.021,-0.0115 ± 0.0092,-0.0165 ± 0.036,0.0205 ± 0.025,0.0175 ± 0.0092,-0.0895 ± 0.0078,0.01 ± 0.035,-0.0315 ± 0.0092,-0.075 ± 0.013,-0.0095 ± 0.033,-0.08 ± 0.0014,-0.111 ± 0.049,-0.0095 ± 0.0021,-0.03 ± 0.017,0.0595 ± 0.011,0.041 ± 0.051,0.0355 ± 0.043
LPS:sTNF-alpha,-0.009 ± 0.014,-0.0025 ± 0.018,-0.0165 ± 0.025,-0.0235 ± 0.023,-0.0195 ± 0.019,-0.0115 ± 0.032,-0.0115 ± 0.0078,-0.004 ± 0.014,0.0195 ± 0.079,-0.043 ± 0.062,-0.0545 ± 0.076,-0.017 ± 0.0014,-0.0165 ± 0.005,-0.014 ± 0.0085,0.0075 ± 0.0035,0.0035 ± 0.0021,0.002 ± 0.028,-0.0175 ± 0.023,-0.0075 ± 0.026
SAg:CCL2/MCP-1,-0.0205 ± 0.012,-0.083 ± 0.0057,-0.141 ± 0.035,0.005 ± 0.0014,-0.0145 ± 0.016,0.0145 ± 0.028,0.017 ± 0.021,-0.0055 ± 0.005,0.003,0.004 ± 0.0042,0.0015 ± 0.0064,-0.005 ± 0.0085,-0.007 ± 0.02,-0.019 ± 0.025,-0.0145 ± 0.0078,-0.0025 ± 0.049,-0.0225 ± 0.0092,-0.0075 ± 0.0064,0.0185 ± 0.033
SAg:CD38,-0.007 ± 0.028,-0.0105 ± 0.023,-0.126 ± 0.0092,-0.012 ± 0.024,0.008 ± 0.013,0.0015 ± 0.0035,-0.02 ± 0.021,-0.0315 ± 0.028,-0.01 ± 0.021,-0.0075 ± 0.00071,-0.037 ± 0.018,-0.0215 ± 0.037,-0.024 ± 0.041,-0.0595 ± 0.03,0.007 ± 0.03,-0.007 ± 0.042,-0.005 ± 0.0028,-0.0085 ± 0.0064,-0.0155 ± 0.00071
SAg:CD40,-0.0225 ± 0.0064,-0.0405 ± 0.0035,-0.153 ± 0.018,-0.002 ± 0.0071,-0.008 ± 0.011,-0.015 ± 0.0042,-0.013 ± 0.033,-0.024 ± 0.031,-0.0165 ± 0.05,-0.032 ± 0.038,-0.054 ± 0.013,-0.0325 ± 0.054,-0.025 ± 0.052,-0.034 ± 0.048,-0.006 ± 0.021,-0.0065 ± 0.0092,-0.0075 ± 0.0064,-0.024 ± 0.011,-0.0445 ± 0.036
SAg:CD62E/E-Selectin,-0.0185 ± 0.012,-0.1 ± 0.016,-0.625 ± 0.068,-0.0265 ± 0.0021,-0.0185 ± 0.032,-0.007 ± 0.0085,-0.017 ± 0.0042,0.017 ± 0.014,0.012 ± 0.014,0.0205 ± 0.0021,0.04 ± 0.028,-0.01 ± 0.03,0.0015 ± 0.025,0.029 ± 0.016,0 ± 0.014,-0.0225 ± 0.053,-0.0045 ± 0.005,-0.008 ± 0.0085,-0.001 ± 0.024
SAg:CD69,-0.028 ± 0.0028,-0.0845 ± 0.026,-0.225 ± 0.037,0.001 ± 0.04,-0.005 ± 0.023,-0.021 ± 0.0057,-0.0405 ± 0.043,-0.035 ± 0.028,-0.013 ± 0.0014,-0.0035 ± 0.018,0.0035 ± 0.016,-0.0265 ± 0.043,-0.025 ± 0.038,-0.0145 ± 0.028,-0.011 ± 0.017,-0.0015 ± 0.018,-0.008 ± 0.0028,-0.013 ± 0.017,-0.043 ± 0.037
SAg:CXCL8/IL-8,-0.029 ± 0.0099,-0.103 ± 0.013,-0.31 ± 0.064,-0.0145 ± 0.00071,-0.016 ± 0.011,-0.0035 ± 0.013,0.0125 ± 0.0078,0.0445 ± 0.0092,-0.015,0.01 ± 0.0057,0.041 ± 0.0085,-0.029 ± 0.079,-0.0335 ± 0.039,0.0525 ± 0.018,-0.0055 ± 0.019,0.004 ± 0.045,-0.0025 ± 0.023,-0.001 ± 0.014,0.049 ± 0.037
SAg:CXCL9/MIG,-0.007 ± 0.016,0.001 ± 0.0057,-0.004 ± 0.013,0.001 ± 0.0028,-0.009 ± 0.0014,0.001 ± 0.014,-0.001 ± 0.013,-0.0025 ± 0.0021,-0.0035 ± 0.0035,0.0105 ± 0.012,0.005 ± 0.013,-0.0005 ± 0.015,-0.0105 ± 0.018,0 ± 0.0057,-0.009 ± 0.0071,0.006 ± 0.0057,-0.0105 ± 0.00071,0.002 ± 0.014,-0.002 ± 0.02
SAg:PBMC Cytotoxicity,-0.034 ± 0.0085,-0.0385 ± 0.011,-0.125 ± 0.028,-0.022 ± 0.0071,-0.014 ± 0.031,-0.0045 ± 0.035,0.032 ± 0.028,0.0255 ± 0.032,0.0135 ± 0.0092,0.021 ± 0.013,0.0185 ± 0.013,0.0125 ± 0.0078,0.0255 ± 0.039,0.0115 ± 0.039,-0.005 ± 0.045,0.0205 ± 0.035,-0.029 ± 0.038,-0.0315 ± 0.036,0.023 ± 0.024
SAg:Proliferation,-0.043 ± 0.035,-0.122 ± 0.035,-0.372 ± 0.1,-0.021 ± 0.013,0.0205 ± 0.053,-0.006 ± 0.0085,-0.036 ± 0.033,0.02 ± 0.02,0.001 ± 0.031,0.0185 ± 0.011,0.0675 ± 0.00071,-0.011 ± 0.017,-0.0475 ± 0.067,-0.115,-0.0025 ± 0.063,-0.0055 ± 0.074,-0.0295 ± 0.11,-0.0385 ± 0.023,0.039 ± 0.017
SAg:SRB,0.009 ± 0.0071,0.0115 ± 0.0092,-0.0175 ± 0.028,-0.0065 ± 0.011,-0.0065 ± 0.0078,-0.005 ± 0.016,-0.003 ± 0.0099,-0.0105 ± 0.005,0.004 ± 0.0042,-0.0095 ± 0.0078,-0.0265 ± 0.011,-0.0065 ± 0.00071,-0.0095 ± 0.0035,-0.0025 ± 0.013,0.0175 ± 0.005,0.031 ± 0.017,0.0005 ± 0.0092,-0.0085 ± 0.0092,-0.0055 ± 0.013
